For experiment [1], the system named is intrinsic pathway of coagulation in normal human plasma. The experiment can be described thus: Clotting assay: activated partial thromboplastin time (aPTT). The format is biochemical. How it is done: (§1) Clotting assays. All clotting times were measured using an Amelung coagulometer. Activated partial thromboplastin time (aPTT) was measured by incubating the peptides diluted in sterile water at the indicated concentrations, with 100 μL citrated human plasma for 1 minute followed by the addition of 100 μL aPTT reagent (aPTT Automate, Diagnostica Stago) for 60 seconds at 37° C. Clotting was initiated by the addition of 100 μL of a 25-mM CaCl2 solution. In the prothombrin time assay (PT), clotting was initiated by the addition of 100 μL Thrombomax with calcium (PT reagent; Sigma-Aldrich). For measuring the thrombin clotting time (TCT), clotting was initiated by the addition of 100 μL Accuclot thrombin time reagent (TCT reagent; Sigma-Aldrich).

Experiment [2] concerns extrinsic pathway of coagulation in normal human plasma. The experiment can be described thus: Clotting assay: prothrombin time (PT). The format is biochemical. As to the method: as §1
Experiment [3] has as its system thrombin induced fibrin network formation in normal human plasma. The experiment can be described thus: Clotting assay: thrombin clotting time (TCT). The format is biochemical. As to the method: as §1
Experiment [4] deals with E. coli. The experiment can be described thus: Viable count analysis, E. coli. Format: cell-based, Escherichia coli. The following applies: for antibacterial activity (cfu) / bactericidal activity in presence of human plasma: 10 mM Tris; for antibacterial activity (cfu): pH 7.4 buffer, dose-response (FIG. 34C); for bactericidal activity in presence of human plasma: 0.15 M NaCl, pH 7.4 with 20% human citrate plasma, versus buffer; for bactericidal activity in heat-inactivated plasma: 20% heat-inactivated human citrate plasma. How it is done: Viable count analysis. E. coli ATCC 25922 bacteria were grown to mid-logarithmic phase in Todd-Hewitt (TH) medium. Bacteria were washed and diluted in 10 mM Tris, pH 7.4 containing 5 mM glucose. E. coli ATCC 25922 (50 μl; 2×10^6 cfu/ml) were incubated, at 37° C. for 2 h with peptides at the indicated concentrations. Other experiments with the TFPI-peptides and LL-37 were performed in 10 mM Tris, pH 7.4, containing also 0.15 M NaCl, with normal or heat inactivated 20% citrate-plasma (PP). Serial dilutions of the incubation mixture were plated on TH agar, followed by incubation at 37° C. overnight and cfu determination.
(§2) Viable count analysis—E. coli strains were grown to mid-logarithmic phase in Todd-Hewitt (TH). P. aeruginosa strains were grown in TH overnight. Bacteria were washed and diluted in 10 mM Tris, pH 7.4 containing 5 mM glucose. 2×10^6 cfu/ml bacteria were incubated in 50 μl, at 37° C. for 2 h with the C-terminal TFPI-derived peptides GGL27, TKR22, or LIK17 at the indicated concentrations. Additional experiments were performed in 10 mM Tris, pH 7.4, containing 0.15 M NaCl, either alone or with 20% normal or heat inactivated citrate-plasma. Serial dilutions of the incubation mixture were plated on TH agar, followed by incubation at 37° C. overnight and cfu determination.

Experiment [5] concerns P. aeruginosa. The experiment in a line: Viable count analysis, P. aeruginosa. Format: cell-based, Pseudomonas aeruginosa. The following applies: for killing in human plasma compared with physiological buffer: 20% human citrate plasma. As to the method:
as §2

Experiment [6] has as its system E. coli. The experiment can be described thus: Bacterial membrane permeabilization, impermeant probe FITC (fluorescence microscopy). The format is cell-based, Escherichia coli. The following applies: 30 μM peptide. How it is done:
Fluorescence microscopy. The impermeant probe FITC (Sigma-Aldrich, St. Louis, USA) was used for monitoring of bacterial membrane permeabilization. S. aureus ATCC 29213 bacteria were grown to mid-logarithmic phase in TSB medium. Bacteria were washed and resuspended in buffer (10 mM Tris, pH 7.4, 0.15M NaCl, 5 mM glucose) to yield a suspension of 1×10^7 CFU/ml. 100 μl of the bacterial suspension was incubated with 30 μM of the respective peptides at 30° C. for 30 min. Microorganisms were then immobilized on poly (L-lysine)-coated glass slides by incubation for 45 min at 30° C., followed by addition onto the slides of 200 μl of FITC (6 μg/ml) in buffer and a final incubation for 30 min at 30° C. […] Bacteria were visualized using a Nikon Eclipse TE300 (Nikon, Melville, USA) inverted fluorescence microscope equipped with a Hamamatsu C4742-95 cooled CCD camera (Hamamatsu, Bridgewater, USA) and a Plan Apochromat ×100 objective (Olympus, Orangeburg, USA). […]
Fluorescence microscopy—Fluorescein isothiocyanate (FITC; Sigma-Aldrich, St. Louis, USA) was used for monitoring of bacterial membrane permeabilization. […] Bacteria were visualized using a Nikon Eclipse TE300 (Nikon, Melville, USA) inverted fluorescence microscope equipped with a Hamamatsu C4742-95 cooled CCD camera (Hamamatsu, Bridgewater, USA) and a Plan Apochromat ×100 objective (Olympus, Orangeburg, USA). […]

“Also recorded” adds a separate entry of the source. Where two headings read alike, the source gives them in different places.

With “GGLIKTKRKRKKQRVKIAYEEIFVKNM [GGL27, C-terminal peptide of TFPI, plasmin-generated]”, the “activated partial thromboplastin time (aPTT)” value in experiment [1] was “impair the intrinsic pathway of coagulation”. The “activated partial thromboplastin time (aPTT)” value in experiment [1] (listed as GGL-27) is recorded as “impairs coagulation in a dose dependent manner”. Moreover, in experiment [2], the “prothrombin time (PT)” value is on record as “affected prothrombin time”. Moreover, the “prothrombin time (PT)” value in experiment [2] (listed as GGL-27) is listed as “impairs coagulation in a dose dependent manner”. For the same sequence, in experiment [3], the “thrombin clotting time (TCT)” value is reported as “not significantly affected”. Moreover, in experiment [3] (listed as GGL-27), the “thrombin clotting time (TCT)” value was “impairs coagulation in a dose dependent manner”. In experiment [4], the “antibacterial activity (cfu)” value is reported as “significant antibacterial activity”, the “bactericidal activity in presence of human plasma” value is listed as “enhanced in human plasma; also recorded: significantly enhanced” and the “bactericidal activity in heat-inactivated plasma” value was “largely abolished in heat-inactivated plasma; also recorded: abolished the potentiation”. In experiment [5], the “potentiating effect of native plasma compared with heat-inactivated plasma” value was “less significant” and the “killing in human plasma compared with physiological buffer” value is reported as “not enhanced”. Besides, the “permeabilization of bacterial membranes” value in experiment [6] is on record as “permeabilized bacterial membranes”.

For LIKTKRKRKKQRVKIAY [LIK17], the “activated partial thromboplastin time (aPTT)” value in experiment [1] is listed as “impair the intrinsic pathway of coagulation”. Besides, the “prothrombin time (PT)” value in experiment [2] was “affected prothrombin time”. In addition, in experiment [3], the “thrombin clotting time (TCT)” value is “not significantly affected”. In experiment [4], the “antibacterial activity (cfu)” value was “significant antibacterial activity”, the “bactericidal activity in presence of human plasma” value is “significantly enhanced” and the “bactericidal activity in heat-inactivated plasma” value is recorded as “abolished the potentiation”. Moreover, in experiment [5], the “potentiating effect of native plasma compared with heat-inactivated plasma” value was “less significant” and the “killing in human plasma compared with physiological buffer” value is “not enhanced”. Moreover, the “permeabilization of bacterial membranes” value in experiment [6] is “permeabilized bacterial membranes”.
